“Also recorded” adds a separate entry of the source. Structures can show the parent of a compound that is named as a salt.
Legend:
[1] = test system: LPS activated macrophages; experiment: Cytokine gene expression by RT-PCR in LPS activated bone marrow macrophages; type: cell-based; conditions: PEA 50 μM in DMSO, LPS 200 ng/ml, 24 hours; versus LPS alone
Method: Bone marrow macrophages were cultured for 24 hours, followed by treatment with lipopolysaccharides (LPS) from Escherichia coli O111:B4 (to activate macrophages) and the endocannabinoid molecule, dissolved in dimethyl sulfoxide (DMSO). After 24 hours of treatment, the cells are lysed, and the RNA collected. Gene expression is determined using RT-PCR. The expression of inflammatory cytokines such as Tumor Necrosis Factor Alpha (TNF-α), Interleukin-1-Beta […] and Interleukin-6 are used to determine the anti-inflammatory effect of the endocannabinoid solution. For example, macrophages were cultured for 24 hours and treated with LPS (200 ng/ml) and PEA (50 μM). After 24 hours, cells were lysed, and the RNA collected.
Bone marrow macrophages are cultured for 24 hours, followed by treatment with lipopolysaccharides (to activate macrophages) and the endocannabinoid dissolved in DMSO or endocannabinoid nanoparticle formulation at the same concentration. 24 hours after treatment, the cells were lysed, and the RNA collected. Gene expression is determined using RT-PCR. The expression of inflammatory cytokines such as Tumor Necrosis Factor Alpha (TNF-α), and Interleukin-1-Beta (IL1β) is used to determine the anti-inflammatory effect of the endocannabinoid solution.

[2] = test system: female Sprague Dawley Rats injected with mono-iodoacetate to induce OA; experiment: Paw withdrawal threshold with Electronic Von Frey in MIA induced OA rats (Examples 8-9); type: in vivo, rat
Method: This example was conducted to determine in-vivo pain response. […] Pain response was assessed using Von Frey filaments that measure mechanical allodynia. Paw withdrawal threshold was measured using Electronic Von Frey [IITC]. For example, female Sprague Dawley Rats were injected with 30 μL of mono-iodoacetate solution to induce OA. […] The results were compared to rodents with 2 injections of bupivacaine HCl in 0.9% saline (1.5 mg/ml) in those specific periarticular locations. […] FIG. 10 depicts electronic Von Frey measurements done with treatment groups using bupivacaine HCL periarticularly injected at 2 locations alone and periarticular injection of PEA nanoparticles with bupivacaine HCL at 2 locations.
This example was conducted to determine the effect of increasing the dosage of the local anesthetic as commonly 5 mg/mL bupivacaine is used clinically. […] For example, female Sprague Dawley Rats were injected with 30 μL of mono-iodoacetate solution (MIA) to induce OA.
Pain response was measured using Von Frey measurements. […] The PEA nanoparticles with high dose of bupivacaine HCL extended pain relief more than 4 weeks compared to a few hours in the high dose bupivacaine HCL alone group. […]

[3] = test system: female Sprague Dawley Rats injected with mono-iodoacetate to induce OA; experiment: Joint diameter (vernier caliper) as measure of joint inflammation in MIA induced OA rats; type: in vivo, rat; conditions: periarticular, bupivacaine HCl 1.5 mg/ml, 50 μL/location
Method: This example was conducted to determine in-vivo inflammation. […] The joint inflammation is assessed via vernier caliper measurements. For example, female Sprague Dawley Rats were injected with 30 μL of mono-iodoacetate solution to induce OA. […] The injections were done under X-ray guidance using a C-arm for increased precision. Inflammation was assessed using a vernier caliper at the knee joint. […] Vernier caliper measurements show reduced inflammation in the bupivacaine+PEA nanoparticles group compared to the bupivacaine HCL only group at day 3 and day 7. At day 7, the inflammation in the bupivacaine+PEA nanoparticles group is not different from the baseline. At day 3, the inflammation in the bupivacaine HCl only group is higher than the MIA group. Statistical tests were conducted using only one way ANOVA with Brown Forsythe and Welsh tests.
FIG. 9 is a graph depicting joint diameter upto 21 days. […] The treatment groups are high does of bupivacaine HCl at 1 location (N=4), periarticular PEA nanoparticles at 2 locations +high does bupivacaine HCL at 1 location (N=5) with control of MIA (3 mg; N=6). The treatment groups with PEA nanoparticles show anti-inflammatory effects for 3 weeks. Statistical tests were conducted using only one way ANOVA with Brown Forsythe and Welsh tests.

[4] = test system: MIA induced OA rats; experiment: Paw withdrawal threshold with Von Frey filaments in MIA induced OA rats (Examples 1-2); type: in vivo, rat
Text: Von Frey data typically refers to experimental data collected using the von Frey filaments or hairs, which are instruments commonly used in neuroscience and behavioral research to assess mechanical sensitivity or tactile allodynia (an increased sensitivity to touch, often associated with pain or discomfort) in animals, particularly rodents. The von Frey test involves applying calibrated filaments of varying forces to the skin of an animal, usually the hind paw of a rodent. The animal's response is overserved to determine its sensitivity to mechanical stimuli. The data collected during von Frey testing may include a) Threshold Response: The force or bending pressure at which the animal first responds to the filament. This is often referred to as the “withdrawal threshold” and is an indicator of the animal's sensitivity to touch; b) Response Frequency: The number of positive responses (e.g., paw withdrawal, licking, or shaking) to the application of the von Frey filaments. This information provides a measure of the intensity or frequency of the animal's response to the mechanical stimulus; and c) Response Latency: The time it takes for the animal to respond after the application of the von Frey filament. A shorter response latency may indicate increased sensitivity.
The injections were 50 μL each and the Bupivacaine HCL (1.5 mg/mL) was dissolved in 0.9% saline. […] FIG. 1 depicts the locations in the knee where the periarticular injections of only bupivacaine were administered.
Periarticular injections of local anesthetics into these specific locations can prolong the duration of analgesia compared to intra-articular injections into the knee joint. […]
FIG. 3 is a graph that depicts the change from the baseline pre-injury values of the animals versus time in days. […] FIG. 3 depicts the paw withdrawal threshold as measured using Von Frey filaments. in MIA induced OA rats.

SMILES | gene expression of IL6 [1] | gene expression of ILβ [1] | gene expression of TNF-α [1] | duration of pain relief ([2]; bupivacaine 3 mg/ml, 50 μL at one location (superior lateral)) | hypoalgesic and analgesic efficacy on increasing the bupivacaine dose ([2]; bupivacaine increased from 1.5mg/ml to 3 mg/mL (0.15% to 0.3%), HCl) | joint diameter at day 3 [3] | duration of efficacy (analgesia) ([4]; intraarticular injection of same amount of bupivacaine HCL) [days] | duration of efficacy (analgesia) ([4]; periarticular injection at 4 locations, 50 μL each, 1.5 mg/mL in 0.9% saline) [days] | pain relief versus disease control (paw withdrawal threshold, change from baseline) ([4]; periarticular injections at 1, 2 or 4 locations)
CCCCCCCCCCCCCCCC(=O)NCCO [PEA, palmitoylethanolamide] | significantly less than in the LPS alone control group | significantly less than in the LPS alone control group | significantly less than in the LPS alone control group |  |  |  |  |  | 
CCCCN1CCCCC1C(=O)Nc1c(C)cccc1C (stereo not drawn) [bupivacaine HCL, bupivacaine HCl] |  |  |  | a few hours | significant reduction in the hypoalgesic and analgesic effect; also recorded: significantly reduced the efficacy | significantly increased joint diameter or inflammation compared to the injection of MIA alone | 3 | 17 | prolonged pain relief compared to the disease control

Source: patent publication US20260216214A1, “ANALGESIC COMPOSITIONS, METHOD OF MANUFACTURE AND USES THEREOF” (University of Connecticut, priority 2022, published 2026)
